Test results reported in ChEMBL document CHEMBL5143659, “Concise synthesis and preliminary biological evaluation of new triazolylthioacetone derivatives bearing pyridine, pyrazine, and 3,4,5-trimethoxybenzyl fragment” (Bioorg Med Chem Lett, 2022).

Tests used:
HCT-116 [1] = experiment: Antiproliferative activity against human HCT-116 cells assessed as inhibition of cell growth by MTT assay; type: functional, cell-based
HepG2 = experiment: Antiproliferative activity against human HepG2 cells assessed as inhibition of cell growth by MTT assay; type: functional, cell-based
HCT-116 [2] = experiment: Induction of cell cycle arrest in human HCT-116 cells assessed as accumulation of cells at G2/M phase at 0.75 uM incubated for 24 hrs by PI staining based flow cytometry analysis (reference value: 21.10 %); type: functional
HCT-116 [3] = experiment: Induction of cell cycle arrest in human HCT-116 cells assessed as accumulation of cells at G2/M phase at 1.5 uM incubated for 24 hrs by PI staining based flow cytometry analysis (reference value: 21.10 %); type: functional
Tubulin = experiment: Inhibition of tubulin polymerization (unknown origin) measured every minute for 20 mins by fluorescence based assay; type: protein-complex assay, Homo sapiens
HCT-116 [4] = experiment: Induction of cell cycle arrest in human HCT-116 cells assessed as accumulation of cells at G1/G0 phase at 1.5 uM incubated for 24 hrs by PI staining based flow cytometry analysis (reference value: 31.33 %); type: functional
HT-29 = experiment: Antiproliferative activity against human HT-29 cells assessed as inhibition of cell growth by MTT assay; type: functional, cell-based
HCT-116 [5] = experiment: Induction of cell cycle arrest in human HCT-116 cells assessed as accumulation of cells at G1/G0 phase at 3 uM incubated for 24 hrs by PI staining based flow cytometry analysis (reference value: 31.33 %); type: functional
HCT-116 [6] = experiment: Induction of cell cycle arrest in human HCT-116 cells assessed as accumulation of cells at S phase at 3 uM incubated for 24 hrs by PI staining based flow cytometry analysis (reference value: 47.56 %); type: functional
HCT-116 [7] = experiment: Induction of cell cycle arrest in human HCT-116 cells assessed as accumulation of cells at G1/G0 phase at 0.75 uM incubated for 24 hrs by PI staining based flow cytometry analysis (reference value: 31.33 %); type: functional
[8] = Cytotoxicity against HEK293 cells assessed as inhibition of cell growth by MTT assay; type: toxicity, cell-based; details: human
HCT-116 [9] = experiment: Induction of cell cycle arrest in human HCT-116 cells assessed as accumulation of cells at S phase at 1.5 uM incubated for 24 hrs by PI staining based flow cytometry analysis (reference value: 47.56 %); type: functional
Tubulin (Homo sapiens) = Tubulin (Homo sapiens) (UniProt P68371+Q9H4B7+P0DPH7+P68366+Q13509+Q71U36+P04350+Q3ZCM7+P07437+P68363+Q9BQE3+Q6PEY2+Q13885+Q9BVA1+Q9BUF5); experiment: Inhibition of tubulin polymerization (unknown origin) at 10 uM measured every minute for 20 mins by fluorescence based assay relative to control; type: protein-complex assay
HCT-116 [10] = experiment: Induction of cell cycle arrest in human HCT-116 cells assessed as accumulation of cells at S phase at 0.75 uM incubated for 24 hrs by PI staining based flow cytometry analysis (reference value: 47.56 %); type: functional
HeLa = experiment: Antiproliferative activity against human HeLa cells assessed as inhibition of cell growth by MTT assay; type: functional, cell-based
HCT-116 [11] = experiment: Induction of cell cycle arrest in human HCT-116 cells assessed as accumulation of cells at G2/M phase at 3 uM incubated for 24 hrs by PI staining based flow cytometry analysis (reference value: 21.10 %); type: functional
[12] = target: Vascular endothelial growth factor receptor 2 (Homo sapiens, UniProt P35968); experiment: Inhibition of VEGFR2 (unknown origin) by kinase-glo luminescent assay
Chain of Vascular endothelial growth factor receptor 2 (P35968 whole entry): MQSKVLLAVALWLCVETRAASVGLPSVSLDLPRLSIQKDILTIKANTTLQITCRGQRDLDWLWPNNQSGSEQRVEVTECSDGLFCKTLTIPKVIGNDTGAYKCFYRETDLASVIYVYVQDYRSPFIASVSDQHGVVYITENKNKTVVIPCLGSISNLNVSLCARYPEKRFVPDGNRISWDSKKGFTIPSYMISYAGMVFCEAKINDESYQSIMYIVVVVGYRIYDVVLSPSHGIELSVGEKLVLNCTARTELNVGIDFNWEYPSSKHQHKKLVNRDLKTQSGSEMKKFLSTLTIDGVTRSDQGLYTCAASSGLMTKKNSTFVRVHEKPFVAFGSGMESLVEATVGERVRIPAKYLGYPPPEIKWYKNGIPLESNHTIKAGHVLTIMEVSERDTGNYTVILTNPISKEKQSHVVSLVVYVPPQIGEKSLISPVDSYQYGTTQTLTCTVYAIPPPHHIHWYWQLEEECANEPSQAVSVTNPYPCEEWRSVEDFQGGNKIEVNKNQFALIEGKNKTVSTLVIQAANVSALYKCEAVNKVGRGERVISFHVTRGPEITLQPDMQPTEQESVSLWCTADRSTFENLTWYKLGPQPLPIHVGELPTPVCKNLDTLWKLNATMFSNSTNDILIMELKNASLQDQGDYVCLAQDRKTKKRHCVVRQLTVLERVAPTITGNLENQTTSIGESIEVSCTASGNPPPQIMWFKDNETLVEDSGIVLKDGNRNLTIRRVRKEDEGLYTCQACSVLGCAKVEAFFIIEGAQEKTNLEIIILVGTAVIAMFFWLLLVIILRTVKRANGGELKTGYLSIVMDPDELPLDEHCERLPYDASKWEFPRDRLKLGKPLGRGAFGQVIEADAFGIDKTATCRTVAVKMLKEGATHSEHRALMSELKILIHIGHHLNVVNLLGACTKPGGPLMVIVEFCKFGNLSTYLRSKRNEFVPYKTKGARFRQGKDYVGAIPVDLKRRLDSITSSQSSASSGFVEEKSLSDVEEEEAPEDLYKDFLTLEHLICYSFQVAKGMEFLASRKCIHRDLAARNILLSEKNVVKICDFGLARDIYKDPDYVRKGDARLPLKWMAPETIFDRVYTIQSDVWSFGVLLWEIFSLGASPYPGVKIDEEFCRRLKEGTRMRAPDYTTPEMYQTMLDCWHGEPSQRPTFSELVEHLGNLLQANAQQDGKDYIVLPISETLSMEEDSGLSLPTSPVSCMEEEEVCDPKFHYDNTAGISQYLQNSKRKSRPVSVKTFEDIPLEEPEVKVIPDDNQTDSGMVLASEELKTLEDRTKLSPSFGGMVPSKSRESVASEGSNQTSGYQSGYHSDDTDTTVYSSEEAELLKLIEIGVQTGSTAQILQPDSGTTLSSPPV

In the case of `COc1ccc(/C=C\c2cc(OC)c(OC)c(OC)c2)cc1O` [COMBRETASTATIN A4], the IC50 (HCT-116 [1]) is reported as 1.1 µM.
`O=C(CSc1nnc(-c2ccccn2)n1N1C(=O)c2ccccc2C1=O)c1ccc(C(F)(F)F)cc1` showed an IC50 (HepG2) of 94.3 µM.
For `O=C(CSc1nnc(-c2ccccn2)n1N1C(=O)c2ccccc2C1=O)C1CC1`, the IC50 (HepG2) was over 100 µM.
In the case of `COc1cc(Cc2nnc(SCC(=O)c3ccccc3)n2N2C(=O)c3ccccc3C2=O)cc(OC)c1OC`, the IC50 (HepG2) is reported as 71.3 µM.
With `COc1cc(COc2nnc(SCC(=O)c3ccc(Cl)cc3)n2N2C(=O)c3ccccc3C2=O)cc(OC)c1OC` the IC50 (HepG2) was over 100 µM.
Molecule `COc1cc(Cc2nnc(SCC(=O)c3ccc(Cl)cc3)n2N2C(=O)c3ccccc3C2=O)cc(OC)c1OC` has an IC50 (HepG2) of 94.8 µM.
`O=C(CSc1nnc(-c2cnccn2)n1N1C(=O)c2ccccc2C1=O)c1ccc(Cl)cc1` gave an IC50 (HepG2) of over 100 µM.
With `CC(=O)CSc1nnc(-c2cnccn2)n1N1C(=O)c2ccccc2C1=O` the IC50 (HepG2) was over 100 µM.
In the case of `COc1cc(Cc2nnc(SCC(=O)c3ccc(C)cc3)n2N)cc(OC)c1OC`, the Activity (HCT-116 [2]) is reported as 33.73%, the IC50 (HCT-116 [1]) is reported as 1.46 µM and the Activity (HCT-116 [3]) is reported as 36.03%. It also gave an IC50 (Tubulin) of 12.7 µM, an Activity (HCT-116 [4]) of 33.76% and an IC50 (HT-29) of 0.62 µM. The Activity (HCT-116 [5]) was 11.13%, the Activity (HCT-116 [6]) was 40.12% and the Activity (HCT-116 [7]) was 29.3%. It also gave an IC50 [8] of over 100 µM, an Activity (HCT-116 [9]) of 30.21% and an IC50 (HepG2) of 3.65 µM. The inhibition (Tubulin (Homo sapiens)) was 36%, the Activity (HCT-116 [10]) was 36.97% and the IC50 (HeLa) was 9.02 µM. The Activity (HCT-116 [11]) was 48.75%.
Molecule `COc1ccc(C(=O)CSc2nnc(Cc3cc(OC)c(OC)c(OC)c3)n2N)cc1` has an IC50 (HCT-116 [1]) of 4 µM, an IC50 (HT-29) of 10.8 µM and an IC50 [8] of over 100 µM. It also gave an IC50 (HepG2) of 16.2 µM and an IC50 (HeLa) of 11.8 µM.
With `COc1cc(COc2nnc(SCC(=O)c3ccc(C)cc3)n2N)cc(OC)c1OC` the IC50 (HCT-116 [1]) was 7.57 µM, the IC50 (HT-29) was 12.2 µM and the IC50 [8] was over 100 µM. The IC50 (HepG2) was 13.1 µM and the IC50 (HeLa) was 29.4 µM.
`O=C(CSc1nnc(-c2cnccn2)n1N1C(=O)c2ccccc2C1=O)C1CC1` gave an IC50 (HepG2) of over 100 µM.
In the case of `COc1ccc(/C=N/n2c(SCC(=O)c3ccc(Cl)cc3)nnc2-c2cc3ccccc3[nH]2)cc1`, the IC50 [12] is reported as 0.071 µM.
With `CC(=O)CSc1nnc(-c2ccccn2)n1N1C(=O)c2ccccc2C1=O` the IC50 (HepG2) was over 100 µM.
Work on `COc1cc(Cc2nnc(SCC(=O)c3ccc(C)cc3)n2N2C(=O)c3ccccc3C2=O)cc(OC)c1OC` yielded an IC50 (HepG2) of over 100 µM.
In the case of `COc1cc(-c2nnc(SCC(=O)c3ccc(C)cc3)n2N2C(=O)c3ccccc3C2=O)cc(OC)c1OC`, the IC50 (HCT-116 [1]) is reported as over 100 µM, the IC50 (HT-29) is reported as 76.4 µM and the IC50 [8] is reported as over 100 µM. It also gave an inhibition (Tubulin (Homo sapiens)) of 19% and an IC50 (HeLa) of 16.2 µM.
`COc1cc(Cc2nnc(SCC(=O)C3CC3)n2N2C(=O)c3ccccc3C2=O)cc(OC)c1OC` showed an IC50 (HepG2) of over 100 µM.
With `O=C(CSc1nnc(-c2ccccn2)n1N1C(=O)c2ccccc2C1=O)c1ccccc1` the IC50 (HepG2) was over 100 µM.
For `Cc1ccc(C(=O)CSc2nnc(-c3cnccn3)n2N2C(=O)c3ccccc3C2=O)cc1`, the IC50 (HepG2) was 89.7 µM.
`COc1ccc(C(=O)CSc2nnc(Cc3cc(OC)c(OC)c(OC)c3)n2N2C(=O)c3ccccc3C2=O)cc1` gave an IC50 (HepG2) of 61.1 µM.
In the case of `O=C(CSc1nnc(-c2cnccn2)n1N1C(=O)c2ccccc2C1=O)c1ccc(C(F)(F)F)cc1`, the IC50 (HepG2) is reported as over 100 µM.
`O=C(CSc1nnc(-c2ccccn2)n1N1C(=O)c2ccccc2C1=O)c1ccc(Cl)cc1` showed an IC50 (HepG2) of 78.3 µM.
`COc1cc(Cc2nnc(SCC(C)=O)n2N2C(=O)c3ccccc3C2=O)cc(OC)c1OC` gave an IC50 (HepG2) of over 100 µM.
In the case of `COc1cc(Cc2nnc(SCC(=O)c3ccc(C(F)(F)F)cc3)n2N2C(=O)c3ccccc3C2=O)cc(OC)c1OC`, the IC50 (HepG2) is reported as 35.3 µM.
With `COc1ccc(C(=O)CSc2nnc(OCc3cc(OC)c(OC)c(OC)c3)n2N)cc1` the IC50 (HCT-116 [1]) was over 100 µM, the IC50 (HT-29) was 67.6 µM and the IC50 [8] was over 100 µM. It also gave an IC50 (HepG2) of 25.4 µM and an IC50 (HeLa) of over 100 µM.
Work on `COc1cc(COc2nnc(SCC(=O)c3ccc(C)cc3)n2N2C(=O)c3ccccc3C2=O)cc(OC)c1OC` yielded an IC50 (HepG2) of 80.3 µM.
For `Cc1ccc(C(=O)CSc2nnc(-c3ccccn3)n2N2C(=O)c3ccccc3C2=O)cc1`, the IC50 (HepG2) was 65.2 µM.
For `COc1ccc(C(=O)CSc2nnc(-c3ccccn3)n2N2C(=O)c3ccccc3C2=O)cc1`, the IC50 (HepG2) was 90.3 µM.
